Laboratory results taken from patent US11020405B2, “Method for prevention or treatment of diabetic complications” (KANGWON NATIONAL UNIVERSITY UNIVERSITY-INDUSTRY COOPERATION …, priority 2017, dated 2021).

Columns and labels:
VE-cadherin = assay: Analysis of adherens junction (VE-cadherin staining); type: cell-based, human; details: HRECs, 10 ng/mL VEGF 90 min with 20 μM midazolam, 5 μM BAPTA-AM, 1 mM NAC, 0.5 μM Trolox, 50 μM cystamine or 20 μM MDC (FIGS. 5, 6)
Protocol: (§1) Purchased from Applied Cell Biology Research Institute (Cell Systems, Kirkland, Wash.), human retinal endothelial cells (HRECs) were cultured in an M19 medium, containing 20% FBS, 3 ng/mL bFGF, 5 U/mL heparin, 100 U/mL penicillin and […], in a 2% gelatin-coated plate.
(§2) Before the following Test Examples 2 to 7, the HRECs were cultured for 6 hr in a medium containing 1% FBS and an antibiotic agent, thus preparing HRECs of Test Example 1.
The HRECs of Test Example 1 were subjected to the respective treatments below and cultured for 30 min. Here, treatment with 10 ng/mL VEGF was performed for 90 min. Thereafter, the HRECs were treated with 1 mM 5-(biotinamido)pentylamine, incubated for 1 hr, fixed with 3.7% formaldehyde, treated with 0.2% triton X-100, treated with a blocking solution containing 138 mM NaCl, 0.1% Tween 20 and 2% BSA dissolved in a 20 mM Tris (pH 7.6) buffer, incubated for 30 min, incubated with a monoclonal VE-cadherin antibody (1:200; Santa Cruz Biotechnology) for 12 hr or more (overnight), incubated with a FITC-conjugated goat anti-mouse antibody (1:200; Sigma-Aldrich), and then measured using confocal microscopy. Some (the following i), iii), iv), vi), ix)) of the results are shown in FIG. 5 and the VE-cadherin concentrations in the portions represented by the dotted lines in FIG. 5 are shown in FIG. 6. With reference to FIG. 6, 10 randomly selected cells were measured to determine the fluorescence intensity of single cells and thus quantify VE-cadherin.
VE-cadherin, which is a protein that mediates adherens junction, was analyzed to evaluate adherens junction.

β-catenin = assay: Analysis of adherens junction (β-catenin staining); type: cell-based, human; details: HRECs, 10 ng/mL VEGF 90 min with 20 μM midazolam, 5 μM BAPTA-AM, 1 mM NAC, 0.5 μM Trolox, 50 μM cystamine or 20 μM MDC (FIGS. 8, 9)
Protocol: as §1, §2
The HRECs of Test Example 1 were subjected to the respective treatments below and cultured for 30 min. Here, treatment with 10 ng/mL VEGF was performed for 90 min. Thereafter, the HRECs were treated with 1 mM 5-(biotinamido)pentylamine, incubated for 1 hr, fixed with 3.7% formaldehyde, treated with 0.2% triton X-100, treated with a blocking solution containing 138 mM NaCl, 0.1% Tween 20 and 2% BSA dissolved in a 20 mM Tris (pH 7.6) buffer, incubated for 30 min, incubated with a monoclonal β-catenin antibody (1:200; Santa Cruz Biotechnology) for 12 hr or more, incubated with a FITC-conjugated goat anti-mouse antibody, and measured using confocal microscopy. Some (the following i), ii), iii), iv)) of the results are shown in FIG. 8, and the β-catenin concentrations in the portions represented by the dotted lines in FIG. 8 are shown in FIG. 9. With reference to FIG. 9, 10 randomly selected cells were measured to determine the fluorescence intensity of single cells and thus quantify β-catenin.
β-catenin, which is a protein that mediates adherens junction like VE-cadherin, was analyzed to evaluate adherens junction.

[1] = test system: human retinal endothelial cells (HRECs); assay: Analysis of intracellular Ca^2+ (Fluo4-AM, confocal microscopy); type: cell-based; details: 10 ng/mL VEGF with 5 μM BAPTA-AM, 1 mM NAC, 0.5 μM Trolox, 50 μM cystamine or 20 μM MDC, 30 min (FIG. 2B)
Protocol: as §1, §2
With reference to FIG. 2A, the HRECs of Test Example 1 were subjected to the respective treatments below, stained with 2 μM Fluo4-AM at 37° C. for 30 min and then measured at time intervals of 10 sec using confocal microscopy (FV-300, Olympus, Tokyo, Japan).
With reference to FIG. 2B, the HRECs of Test Example 1 were subjected to the respective treatments below, cultured for 30 min, stained with 2 μM Fluo4-AM at 37° C. for 30 min and then measured at time intervals of 10 sec using confocal microscopy.

[2] = test system: endothelial monolayer of HRECs; assay: Analysis of cell permeability (FITC-dextran, Transwell); type: cell-based, human; details: HREC monolayer, 10 ng/mL VEGF 90 min with 20 μM midazolam, 5 μM BAPTA-AM, 1 mM NAC, 0.5 μM Trolox, 50 μM cystamine or 20 μM MDC; 40 kDa FITC-dextran 60 min (FIG. 7)
Protocol: The HRECs were cultured (e.g. about 5 days) until the cell confluence thereof reached an appropriate level on gelatin-coated 0.4 μm polycarbonate membranes of Transwell Permeable Supports (Costar, Corning, N.Y.), followed by the respective treatments below and culture for 30 min. Here, treatment with 10 ng/mL VEGF was performed for 90 min. Thereafter, the HRECs were treated with 1 mg/mL 40 kDa FITC-dextran (Sigma-Aldrich), incubated for 60 min, after which the amount of FITC-dextran that was diffused into the lower chamber through the endothelial monolayer of HERCs was measured using a microplate spectrofluorometer (Molecular Devices, Sunnyvale, Calif.).

[3] = test system: human retinal endothelial cells (HRECs); assay: Analysis of ROS of cells (H2DCFDA fluorescence); type: cell-based; details: 10 ng/mL VEGF with 20 μM midazolam, 5 μM BAPTA-AM, 1 mM NAC, 0.5 μM Trolox, 50 μM cystamine or 20 μM MDC (FIG. 3B)
Protocol: as §1, §2
With reference to FIG. 3A, the HRECs of Test Example 1 were treated with 0 to 20 μM midazolam, cultured for 30 min, treated with 10 ng/mL VEGF and 10 μM H2DCFDA (Molecular Probes, Eugene, Oreg.), stained for 10 min in a phenol-red-free low-serum medium, and then measured using confocal microscopy to thus determine the fluorescence intensity of single cells.
With reference to FIG. 3B, the HRECs of Test Example 1 were subjected to the respective treatments below and cultured for 30 min. Upon treatment with 10 ng/mL VEGF, treatment with 10 μM H2DCFDA was performed therewith, or alternatively, treatment with 10 μM H2DCFDA was performed alone, followed by staining for 10 min in a phenol-red-free low-serum medium and then measurement via confocal microscopy to thus determine the fluorescence intensity of single cells.

TGase = assay: Identification of receptor of midazolam through TGase activity analysis; type: cell-based, human; details: HRECs, 0-50 μM flumazenil or 0-30 μM PK11195 1 hr, then 20 μM midazolam 30 min, then 10 ng/ml VEGF (FIG. 11B)
Protocol: With reference to FIG. 11A, the HRECs of Test Example 1 were subjected to the respective treatments below, cultured for 2 hr, treated with 1 mM 5-(biotinamido)pentylamine, incubated for 1 hr, fixed with 3.7% formaldehyde, treated with 0.2% triton X-100, treated with a blocking solution containing 138 mM NaCl, 0.1% Tween 20 and 2% BSA dissolved in a 20 mM Tris (pH 7.6) buffer, incubated for 30 min, incubated with FITC-conjugated streptavidin (1:200, v/v) for 1 hr, and then measured using confocal microscopy to thus determine the fluorescence intensity of single cells.
(§3) As will be described below, flumazenil was used as a GABAA receptor antagonist and PK11195 was used as a TSOP receptor antagonist.
With reference to FIG. 11B, the HRECs of Test Example 1 were treated with 0 μM, 0.01 μM, 0.1 μM, 1 μM, 10 μM, 20 μM, and 50 μM flumazenil and 0 μM, 0.01 μM, 0.1 μM, 1 μM, 3 μM, 10 μM, and 30 μM PK11195, cultured for 1 hr, treated with 20 μM midazolam, cultured for 30 min, treated with 10 ng/ml VEGF, incubated for 10 min, treated with 1 mM 5-(biotinamido)pentylamine, incubated for 1 hr, fixed with 3.7% formaldehyde, treated with 0.2% triton X-100, treated with a blocking solution containing 138 mM NaCl, 0.1% Tween 20 and 2% BSA dissolved in a 20 mM Tris (pH 7.6) buffer, incubated for 30 min, incubated with FITC-conjugated streptavidin (1:200, v/v) for 1 hr, and then measured using confocal microscopy to thus determine the fluorescence intensity of single cells.

[4] = test system: human retinal endothelial cells (HRECs); assay: Identification of receptor of midazolam through ROS concentration analysis; type: cell-based; details: 0-50 μM flumazenil or 0-30 μM PK11195 1 hr, then 20 μM midazolam 30 min, then 10 ng/ml VEGF (FIG. 10B)
Protocol: With reference to FIG. 10A, the HRECs of Test Example 1 were subjected to the respective treatments below, cultured for 10 min, treated with 10 μM H2DCFDA, stained for 10 min in a phenol-red-free low-serum medium, and measured using confocal microscopy to thus determine the fluorescence intensity of single cells.
as §3
With reference to FIG. 10B, the HRECs of Test Example 1 were treated with 0 μM, 0.01 μM, 0.1 μM, 1 μM, 10 μM, 20 μM, and 50 μM flumazenil and 0 μM, 0.01 μM, 0.1 μM, 1 μM, 3 μM, 10 μM, and 30 μM PK11195, cultured for 1 hr, treated with 20 μM midazolam, cultured for 30 min, treated with 10 ng/ml VEGF, incubated for 10 min, treated with 10 μM H2DCFDA, stained for 10 min in a phenol-red-free low-serum medium, and then measured using confocal microscopy to thus determine the fluorescence intensity of single cells.

| Structure (SMILES) | VE-cadherin concentration / adherens junction disruption due to VEGF (VE-cadherin) | β-catenin concentration / adherens junction disruption due to VEGF (β-catenin) | changes in intracellular Ca^2+ (VEGF-induced) compared to control [1] | FITC-dextran diffused into lower chamber (cell permeability) / adherens junction disruption due to VEGF [2] | ROS concentration (VEGF-induced) compared to control [3] | TGase activity in midazolam- and VEGF-treated cells after receptor antagonist (TGase) | ROS concentration in midazolam- and VEGF-treated cells after receptor antagonist [4] |
| --- | --- | --- | --- | --- | --- | --- | --- |
| CC(=O)OCOC(=O)CN(CC(=O)OCOC(C)=O)c1ccccc1OCCOc1ccccc1N(CC(=O)OCOC(C)=O)CC(=O)OCOC(C)=O [BAPTA-AM] | the effect of preventing the adherens junction disruption was also observed | the effect of preventing the adherens junction disruption was also observed | no significant changes in intracellular Ca^2+ | the effect of preventing the adherens junction disruption was also observed | no significant ROS concentration increase was observed | – | – |
| CN(C)c1cccc2c(S(=O)(=O)NCCCCCN)cccc12 [MDC] | the effect of preventing the adherens junction disruption was also observed | the effect of preventing the adherens junction disruption was also observed | intracellular Ca^2+ elevation was caused | the effect of preventing the adherens junction disruption was also observed | ROS concentration was increased | – | – |
| CC(=O)N[C@@H](CS)C(=O)O [NAC] | the effect of preventing the adherens junction disruption was also observed | the effect of preventing the adherens junction disruption was also observed | intracellular Ca^2+ elevation was caused | the effect of preventing the adherens junction disruption was also observed | no significant ROS concentration increase was observed | – | – |
| CCC(C)N(C)C(=O)c1cc2ccccc2c(-c2ccccc2Cl)n1 (stereo not drawn) [PK11195] | – | – | – | – | – | no increase in TGase activity, regardless of the PK11195 concentration | no increase in ROS concentration, regardless of the PK11195 concentration |
| Cc1c(C)c2c(c(C)c1O)CCC(C)(C(=O)O)O2 (stereo not drawn) [Trolox] | the effect of preventing the adherens junction disruption was also observed | the effect of preventing the adherens junction disruption was also observed | intracellular Ca^2+ elevation was caused | the effect of preventing the adherens junction disruption was also observed | no significant ROS concentration increase was observed | – | – |
| NCCSSCCN [cystamine] | the effect of preventing the adherens junction disruption was also observed | the effect of preventing the adherens junction disruption was also observed | intracellular Ca^2+ elevation was caused | the effect of preventing the adherens junction disruption was also observed | ROS concentration was increased | – | – |
